Values joined by “and” are separate entries in the source; they are usually repeats but may differ in a detail not shown here. Equal entries are not always repeated. Active and inactive are the calls of the source.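 How the source made its calls: active means compounds whose mean IC50 for blocking the worm GFP/RFP stress reporter is 5 µM or lower; inactive means the rest.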
System: C. elegans VP596 gst-4::GFP/RFP ratio, acrylamide-induced, 24 h
Experiment: C. elegans gst-4 reporter suppression, analog potency – whole organism, GFP/RFP fluorescence ratio, round 3, SKN-1 inhibitor project, SAR follow-up (AID 743022)

Structure (SMILES)	IC50
COc1ccc(-c2csc(-c3ccncc3)n2)cc1	16.6 µM (inactive)
COc1ccccc1-c1csc(-c2ccncc2)n1	> 64 µM (inactive)
Clc1ccc(-c2csc(-c3cccnc3)n2)cc1	1.67 µM and 0.379 µM
COc1ccc(-c2csc(-c3ccccc3)n2)cc1	28.8 µM (inactive)
Cc1sc(C2CCNCC2)nc1-c1ccccc1	> 64 µM (inactive)
Clc1cccc(-c2csc(-c3ccncc3)n2)c1	1.49 µM
Clc1ccc(-c2csc(-c3ccncc3)n2)cc1	1.34 µM and 1.92 µM
c1ccc(-c2csc(-c3ccccn3)n2)cc1	29 µM (inactive)
COc1ccc(-c2csc(-c3ccccn3)n2)cc1	17.9 µM (inactive)
Clc1ccccc1-c1csc(-c2ccncc2)n1	3.63 µM
Fc1ccc(-c2csc(-c3ccccc3)n2)cc1	23.3 µM (inactive)
Cc1ccc(-c2csc(-c3ccncc3)n2)cc1	18.2 µM (inactive)
Fc1ccc(-c2csc(-c3ccccn3)n2)cc1	3.18 µM
COc1ccc(-c2nc(-c3ccncc3)sc2C)cc1	51.2 µM (inactive)
Clc1ccc(-c2csc(-c3ccncc3)n2)cc1Cl	0.276 µM and 0.884 µM
CC(C)(C)c1csc(-c2ccncc2)n1	> 64 µM (inactive)
COc1ccc(-c2csc(-c3cccnc3)n2)cc1	13.4 µM (inactive)
Cc1ccc(-c2nc(-c3ccncc3)sc2C)cc1	> 64 µM (inactive)
Clc1ccc(-c2csc(-c3ccncc3)n2)c(Cl)c1	1.1 µM
CCCc1cc(-c2nc(-c3ccc(NS(C)(=O)=O)cc3)cs2)ccn1	> 64 µM (inactive)
CCCc1cc(-c2nc(-c3ccc(C)cc3)cs2)ccn1	34.1 µM (inactive)
c1ccc(-c2csc(C3CCNCC3)n2)cc1	> 64 µM (inactive)
FC(F)(F)c1ccc(-c2csc(-c3ccncc3)n2)cc1	3.9 µM
c1ccc(-c2csc(-c3cccnc3)n2)cc1	17.7 µM (inactive)

Structure (SMILES)	IC50
Cc1ccc(-c2csc(-c3cccnc3)n2)cc1	> 64 µM (inactive)
Fc1ccc(-c2csc(C3CCNCC3)n2)cc1	> 64 µM (inactive)
Cc1ccc(-c2csc(C3CCNCC3)n2)cc1	> 64 µM (inactive)
Cc1csc(-c2ccncc2)n1	> 64 µM (inactive)
Clc1ccc(-c2csc(-c3ccccn3)n2)cc1	1.59 µM and 0.869 µM
Clc1ccc(-c2csc(-c3ccccc3)n2)cc1	2.1 µM
Cc1sc(-c2ccncc2)nc1-c1ccc(Cl)cc1	3.24 µM
c1cc(-c2nc(C3CC3)cs2)ccn1	> 64 µM (inactive)
c1ccc(-c2nc(-c3cccnc3)cs2)cc1	> 64 µM (inactive)
N#Cc1ccc(-c2csc(-c3ccncc3)n2)cc1	13.5 µM (inactive)
Fc1ccc(-c2csc(-c3ccncc3)n2)cc1	2.53 µM
Cc1ccccc1-c1csc(-c2ccncc2)n1	14.6 µM (inactive)
COC(=O)c1ccc(-c2csc(-c3ccncc3)n2)cc1	> 64 µM (inactive)
Cc1ccc(-c2csc(-c3ccccc3)n2)cc1	> 64 µM (inactive)
c1cc(-c2nc(-c3nccs3)cs2)ccn1	21.5 µM (inactive)
Fc1ccc(-c2csc(-c3cccnc3)n2)cc1	6.94 µM (inactive)
Cc1sc(-c2ccncc2)nc1-c1ccc(F)cc1	4.77 µM
Cc1ccc(-c2csc(-c3ccccn3)n2)cc1	27.4 µM (inactive)
Cc1sc(-c2ccncc2)nc1-c1ccccc1	11.3 µM (inactive)
Clc1ccc(-c2csc(C3CCNCC3)n2)cc1	> 64 µM (inactive)
Cc1cccc(-c2csc(-c3ccncc3)n2)c1	30.1 µM (inactive)
COc1cccc(-c2csc(-c3ccncc3)n2)c1	26.2 µM (inactive)
COc1ccc(-c2csc(C3CCNCC3)n2)cc1	> 64 µM (inactive)
c1ccc(-c2csc(-c3ccncc3)n2)cc1	2.5 µM

From PubChem BioAssay AID743022 (Sanford-Burnham Center for Chemical Genomics, 2013)
